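48-hour exposure; five concentrations; linearly interpolated endpoints. The concentration for 50% growth inhibition is given as GI50. At the TGI there is no net growth.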
Columns and labels:
Assay in all cases: DTP human tumour cell line panel, 48 h
786-0 renal = system: 786-0 renal
A498 renal = system: A498 renal
A549 NSCLC = system: A549 NSCLC
ACHN renal = system: ACHN renal
BT-549 breast = system: BT-549 breast
CCRF-CEM leukemia = system: CCRF-CEM leukemia
COLO 205 colon = system: COLO 205 colon
DU-145 prostate = system: DU-145 prostate
EKVX NSCLC = system: EKVX NSCLC
HCC-2998 colon = system: HCC-2998 colon
HCT-116 colon = system: HCT-116 colon
HCT-15 colon = system: HCT-15 colon
HL-60(TB) leukemia = system: HL-60(TB) leukemia
HOP-62 NSCLC = system: HOP-62 NSCLC
HOP-92 NSCLC = system: HOP-92 NSCLC
HS 578T breast = system: HS 578T breast
HT29 colon = system: HT29 colon
IGROV1 ovarian = system: IGROV1 ovarian
K-562 leukemia = system: K-562 leukemia
KM12 colon = system: KM12 colon
LOX IMVI melanoma = system: LOX IMVI melanoma
MALME-3M melanoma = system: MALME-3M melanoma
MCF7 breast = system: MCF7 breast
MDA-MB-435 = system: MDA-MB-435
MOLT-4 leukemia = system: MOLT-4 leukemia
NCI-H226 lung = system: NCI-H226 lung
NCI-H23 lung = system: NCI-H23 lung
NCI-H460 lung = system: NCI-H460 lung
NCI-H522 lung = system: NCI-H522 lung
NCI/ADR-RES ovarian = system: NCI/ADR-RES ovarian
OVCAR-3 ovarian = system: OVCAR-3 ovarian
OVCAR-4 ovarian = system: OVCAR-4 ovarian
OVCAR-8 ovarian = system: OVCAR-8 ovarian
PC-3 prostate = system: PC-3 prostate
RPMI-8226 leukemia = system: RPMI-8226 leukemia
RXF 393 renal = system: RXF 393 renal
SF-268 CNS = system: SF-268 CNS
SF-295 CNS = system: SF-295 CNS
SF-539 CNS = system: SF-539 CNS
SK-MEL-28 melanoma = system: SK-MEL-28 melanoma
SK-MEL-5 melanoma = system: SK-MEL-5 melanoma
SNB-19 CNS = system: SNB-19 CNS
SNB-75 CNS = system: SNB-75 CNS
SR leukemia = system: SR leukemia
SW-620 colon = system: SW-620 colon
T-47D breast = system: T-47D breast
TK-10 renal = system: TK-10 renal
U251 CNS = system: U251 CNS
UACC-257 melanoma = system: UACC-257 melanoma
UACC-62 melanoma = system: UACC-62 melanoma
UO-31 renal = system: UO-31 renal
CAKI-1 renal = system: CAKI-1 renal
M14 melanoma = system: M14 melanoma
SK-MEL-2 melanoma = system: SK-MEL-2 melanoma
SK-OV-3 ovarian = system: SK-OV-3 ovarian
OVCAR-5 ovarian = system: OVCAR-5 ovarian

Cc1nc2ccc(F)cc2c2c1CCN2c1ccccc1
TGI (786-0 renal): > 100 µM | TGI (A498 renal): 77.2 µM | TGI (A549 NSCLC): 68 µM | TGI (ACHN renal): 67 µM | TGI (BT-549 breast): 44.2 µM | TGI (CCRF-CEM leukemia): 53.2 µM | TGI (COLO 205 colon): 27.1 µM | TGI (DU-145 prostate): > 100 µM | TGI (EKVX NSCLC): 94.9 µM | TGI (HCC-2998 colon): 38.2 µM | TGI (HCT-116 colon): 23.2 µM | TGI (HCT-15 colon): > 100 µM | TGI (HL-60(TB) leukemia): 24.6 µM | TGI (HOP-62 NSCLC): > 100 µM | TGI (HOP-92 NSCLC): 37.8 µM | TGI (HS 578T breast): > 100 µM | TGI (HT29 colon): > 100 µM | TGI (IGROV1 ovarian): > 100 µM | TGI (K-562 leukemia): 33.4 µM | TGI (KM12 colon): > 100 µM | TGI (LOX IMVI melanoma): 27.6 µM | TGI (MALME-3M melanoma): 40.8 µM | TGI (MCF7 breast): 64.7 µM | TGI (MDA-MB-435): 32.8 µM | TGI (MOLT-4 leukemia): 52.4 µM | TGI (NCI-H226 lung): 41.8 µM | TGI (NCI-H23 lung): 52.9 µM | TGI (NCI-H460 lung): 36.1 µM | TGI (NCI-H522 lung): 47.1 µM | TGI (NCI/ADR-RES ovarian): 68 µM | TGI (OVCAR-3 ovarian): > 100 µM | TGI (OVCAR-4 ovarian): > 100 µM | TGI (OVCAR-8 ovarian): 44.6 µM | TGI (PC-3 prostate): 86.2 µM | TGI (RPMI-8226 leukemia): 37.1 µM | TGI (RXF 393 renal): 35.7 µM | TGI (SF-268 CNS): > 100 µM | TGI (SF-295 CNS): 34.4 µM | TGI (SF-539 CNS): 44 µM | TGI (SK-MEL-28 melanoma): 34.3 µM | TGI (SK-MEL-5 melanoma): 26.8 µM | TGI (SNB-19 CNS): > 100 µM | TGI (SNB-75 CNS): 79.1 µM | TGI (SR leukemia): 37 µM | TGI (SW-620 colon): > 100 µM | TGI (T-47D breast): 85.8 µM | TGI (TK-10 renal): 71.5 µM | TGI (U251 CNS): 78.9 µM | TGI (UACC-257 melanoma): 40.1 µM | TGI (UACC-62 melanoma): 27.4 µM | TGI (UO-31 renal): 68.1 µM

C=C(C)[C@@H]1CC[C@]2(C)[C@H](CC=C3[C@@H]4CC(C)(C)CC[C@]4(CO)CC[C@]32C)[C@@]1(C)CCCN
GI50 (A498 renal): 1490 nM | TGI (A498 renal): 2.81 µM | GI50 (CAKI-1 renal): 1730 nM | TGI (CAKI-1 renal): 3.1 µM | GI50 (K-562 leukemia): 2170 nM | TGI (K-562 leukemia): 8.26 µM | GI50 (M14 melanoma): 1650 nM | TGI (M14 melanoma): 3.1 µM | GI50 (MALME-3M melanoma): 1550 nM | TGI (MALME-3M melanoma): 2.96 µM | GI50 (MDA-MB-435): 1620 nM | TGI (MDA-MB-435): 2.98 µM | GI50 (NCI-H226 lung): 5.31 µM | TGI (NCI-H226 lung): 27.7 µM | GI50 (SF-539 CNS): 1650 nM | TGI (SF-539 CNS): 3.02 µM | GI50 (SK-MEL-2 melanoma): 1980 nM | TGI (SK-MEL-2 melanoma): 3.58 µM | GI50 (SK-MEL-5 melanoma): 1680 nM | TGI (SK-MEL-5 melanoma): 3.05 µM | GI50 (SK-OV-3 ovarian): 1880 nM | TGI (SK-OV-3 ovarian): 3.33 µM | GI50 (UACC-62 melanoma): 1680 nM | TGI (UACC-62 melanoma): 3.05 µM

C#CCn1c(=O)c(I)cn(/C(=C\C(=O)OCC)C(=O)OCC)c1=O
TGI (A498 renal): 31.9 µM | TGI (A549 NSCLC): > 100 µM | TGI (DU-145 prostate): 31.3 µM | TGI (HOP-62 NSCLC): 33.6 µM | TGI (HS 578T breast): > 100 µM | TGI (KM12 colon): 31.7 µM | TGI (MDA-MB-435): 30.9 µM | TGI (NCI-H226 lung): 38.2 µM | TGI (NCI-H460 lung): 39.9 µM | TGI (NCI/ADR-RES ovarian): 65.1 µM | TGI (OVCAR-5 ovarian): 40.2 µM | TGI (SF-295 CNS): 36.8 µM | TGI (SF-539 CNS): 33.4 µM | TGI (SK-MEL-2 melanoma): 37.2 µM | TGI (SK-OV-3 ovarian): 31.8 µM | TGI (SNB-19 CNS): 64 µM | TGI (SNB-75 CNS): 30.9 µM | TGI (U251 CNS): 29.1 µM | TGI (UACC-62 melanoma): 30.6 µM
